Ki and Ratio Ki data for eight compounds are collected here from ChEMBL document CHEMBL1150268, “Novel potent and selective thrombin inhibitors based on a central 1,4-benzoxazin-3(4H)-one scaffold” (J Med Chem, 2008).

One experiment deals with Coagulation factor X (Homo sapiens, UniProt P00742). Kind of experiment: Inhibition of factor 10a.
The target in a further experiment is Prothrombin (Homo sapiens, UniProt P00734). Kind of experiment: Inhibition of thrombin.
Experiment [1] is described as follows: Selectivity for trypsin over thrombin.
Experiment [2] is described as follows: Inhibition of trypsin.
Experiment [3] in a line: Selectivity for factor 10a over thrombin.

Each structure is given as a SMILES string.

Coagulation factor X, sequence (P00742 41-179 limits assumed): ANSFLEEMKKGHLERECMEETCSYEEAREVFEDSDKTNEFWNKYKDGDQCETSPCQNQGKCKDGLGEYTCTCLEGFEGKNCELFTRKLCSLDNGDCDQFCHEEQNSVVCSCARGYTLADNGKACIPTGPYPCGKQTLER
Coagulation factor X, sequence (P00742 235-488 limits assumed): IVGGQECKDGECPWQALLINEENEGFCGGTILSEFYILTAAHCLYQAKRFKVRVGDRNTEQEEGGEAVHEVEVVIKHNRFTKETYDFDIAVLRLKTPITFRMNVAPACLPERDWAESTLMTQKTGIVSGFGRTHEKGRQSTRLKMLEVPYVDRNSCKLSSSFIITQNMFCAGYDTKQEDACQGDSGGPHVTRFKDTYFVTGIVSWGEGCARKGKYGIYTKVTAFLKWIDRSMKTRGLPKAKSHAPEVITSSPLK

`CCOC(=O)CCC(=O)N(Cc1ccccc1)c1ccc2c(c1)OC(Cc1ccc(C(=N)N)cc1)C(=O)N2C` (stereo not given): the Ki at Coagulation factor X was 1.05 µM; at Prothrombin it was 0.0058 µM; in experiment [2], 3.1 µM. Moreover, the Ratio Ki in experiment [1] stood at 535; in experiment [3], 181.

`CCOC(=O)C(=O)N(Cc1ccccc1)c1ccc2c(c1)OC(Cc1ccc(C(=N)N)cc1)C(=O)N2C` (stereo not given): the Ki on Coagulation factor X was 1.94 µM; on Prothrombin, 0.0036 µM; in experiment [2], 4.29 µM. The Ratio Ki is 1190 in experiment [1] and 537 in experiment [3].

`CN1C(=O)C(Cc2ccc(C(=N)N)cc2)Oc2cc(NC(=O)C(Cc3ccccc3)C(=O)O)ccc21` (stereo not given): the figures for the Ki (on Coagulation factor X; at Prothrombin; in experiment [2]) were 33.2 µM, 2.94 µM and 5.13 µM, respectively. The results for the Ratio Ki in experiment [1] and in experiment [3] were 1.7 and 11, respectively.

Regarding `COC(=O)CC(=O)N(Cc1ccccc1)c1ccc2c(c1)OC(Cc1ccc(C(=N)N)cc1)C(=O)N2C` (stereo not given), the values for the Ki (on Coagulation factor X; on Prothrombin; in experiment [2]) were 5.71 µM, 0.0034 µM and 3.82 µM, respectively. Besides, the values for the Ratio Ki in experiment [1] and in experiment [3] were 1130 and 1690, respectively.

Turning to `COC(=O)C(Cc1ccccc1)C(=O)Nc1ccc2c(c1)OC(Cc1ccc(C(=N)N)cc1)C(=O)N2C` (stereo not given), the Ki is 58.7 µM on Coagulation factor X, 2.73 µM on Prothrombin and 11.2 µM in experiment [2]. Moreover, the Ratio Ki in experiment [1] was found to be 4.1; in experiment [3], 22.

On to `CN1C(=O)C(Cc2ccc(C(=N)N)cc2)Oc2cc(N(Cc3ccccc3)C(=O)CCC(=O)O)ccc21` (stereo not given), for which the values for the Ki (at Coagulation factor X; at Prothrombin; in experiment [2]) were 15.9 µM, 0.0065 µM and 7.41 µM, respectively. Besides, the figures for the Ratio Ki in experiment [1] and in experiment [3] were 1130 and 2430, respectively.

In the case of `CN1C(=O)C(Cc2ccc(C(=N)N)cc2)Oc2cc(N(Cc3ccccc3)C(=O)CC(=O)O)ccc21` (stereo not given), the figures for the Ki (at Coagulation factor X; on Prothrombin; in experiment [2]) were 139 µM, 0.0026 µM and 298 µM, respectively. Further, the Ratio Ki in experiment [1] came to 112000; in experiment [3] it was 52500.

For the compound `CN1C(=O)C(Cc2ccc(C(=N)N)cc2)Oc2cc(N(Cc3ccccc3)C(=O)C(=O)O)ccc21` (stereo not given), the Ki on Coagulation factor X was 9.27 µM; on Prothrombin it was 0.011 µM; in experiment [2], 10.1 µM. Besides, the Ratio Ki in experiment [1] was found to be 910; in experiment [3], 835.
